# Test results as given in patent US8715706B2, “Methods and devices for delivery of pharmaceutical agents within orifices of the body” (RDD Pharma, Ltd., priority 2009, dated 2014).
# Assays:
# anal sphincter [1] = experiment: Rectal manometry of resting anal pressure after Nifedipine from localized drug release system; format: in vivo, human; settings: 90 minutes after insertion, N 6
# Experimental: Six healthy individuals were selected for measuring resting anal pressure as a function of different doses of Nifedipine administered using a localized drug release system as per an embodiment of the present invention.
# All dimensions are when empty before filling with API. When tested in a water bath, substantially all the API exited the shell within 40 minutes.
# The measurements were conducted using 4 mg, 12 mg or 24 mg of Nifedipine as API, respectively. A Nifedipine (API) solution was prepared at 45 degrees Celsius in a heated water bath. A 22 gauge dispensing needle (Techon Systems) was inserted through the tail and into the coated shell of the drug release system. While the shell was evacuated of air, one milliliter of Nifedipine compound was delivered to the shell via a syringe attached to the needle. A clip was used to seal the tail and the system was left until the Nifedipine became solid.
# A rectal manometry was used to measure resting anal pressure at baseline (before insertion) and 90 minutes after insertion of each shell with the relevant amount of API in a volume of one milliliter. The time of release of the API (API release time) ranged between 20-25 minutes (the variation due to changes in the normal human body temperature). FIGS. 12A and 12C graphically display the results of this study.
# anal sphincter [2] = experiment: Rectal manometry of resting and squeezing anal pressure tonus after Phenylephrine from localized drug release system; format: in vivo, human; set-up: Squeeze Rectal ref max / Squeeze Abs ref mean: unit not given here
# Experimental: The measurements conducted included resting anal pressure tonus and squeezing anal pressure tonus.
# The measurements were conducted using 40 mg and 80 mg of Phenylephprine as API, respectively. A Phenylephprine (API) solution was prepared at 45 degrees Celsius in a heated water bath. A 22 gauge dispensing needle (Techon Systems) was inserted through the tail and into the coated shell of the drug release system. While the shell was evacuated of air, one milliliter of Phenylephprine compound was delivered to the shell via a syringe attached to the needle. A clip was used to seal the tail and the system was left until the Phenylephrine became solid.
# A rectal manometer was used to measure resting anal pressure tonus and squeezing anal pressure tonus at baseline (before insertion), […] amount of API in a volume of one milliliter. The API release time ranged between 20-25 minutes (the variation due to changes in the normal human body temperature). The results are shown below in Table III (40 mg) and Table IV (80 mg). Values shown in bold lettering in Table IV represent statistically significant difference (p<0.05) from baseline value, using paired t-test.
# anal canal = settings: topical, cited from earlier work
# [3] = pK studies, rectal rate of absorption using drug release system; settings: rectally, drug release system of Example 1, FIGS. 14 and 15
# Description: Accordingly, it is intended to embrace all such alternatives, modifications and variations that fall within the spirit and broad scope of the appended claims.
compound,measurement,setting,value
COC(=O)C1=C(C)NC(C)=C(C(=O)OC)C1c1ccccc1[N+](=O)[O-] [Nifedipine],"Resting Max Pressure Rectal Ref, Max",anal sphincter [1]; 4 mg,151.0
same,"Resting Max Pressure Rectal Ref, Mean",anal sphincter [1]; 4 mg,111.6
same,"Resting Max Pressure Rectal Ref, Median",anal sphincter [1]; 4 mg,111.5
same,"Resting Max Pressure Rectal Ref, Min",anal sphincter [1]; 4 mg,72.2
same,"Resting Mean Pressure Rectal Ref, Max",anal sphincter [1]; 4 mg,124.0
same,"Resting Mean Pressure Rectal Ref, Mean",anal sphincter [1]; 4 mg,94.2
same,"Resting Mean Pressure Rectal Ref, Median",anal sphincter [1]; 4 mg,92.3
same,"Resting Mean Pressure Rectal Ref, Min",anal sphincter [1]; 4 mg,57.7
same,"Resting Max Pressure Rectal Ref, Max",anal sphincter [1]; 12 mg,187.1
same,"Resting Max Pressure Rectal Ref, Mean",anal sphincter [1]; 12 mg,105.9
same,"Resting Max Pressure Rectal Ref, Median",anal sphincter [1]; 12 mg,88.0
same,"Resting Max Pressure Rectal Ref, Min",anal sphincter [1]; 12 mg,79.8
same,"Resting Mean Pressure Rectal Ref, Max",anal sphincter [1]; 12 mg,89.4
same,"Resting Mean Pressure Rectal Ref, Mean",anal sphincter [1]; 12 mg,75.0
same,"Resting Mean Pressure Rectal Ref, Median",anal sphincter [1]; 12 mg,73.2
same,"Resting Mean Pressure Rectal Ref, Min",anal sphincter [1]; 12 mg,58.9
same,"Resting Max Pressure Rectal Ref, Max",anal sphincter [1]; 24 mg,153.7
same,"Resting Max Pressure Rectal Ref, Mean",anal sphincter [1]; 24 mg,90.2
same,"Resting Max Pressure Rectal Ref, Median",anal sphincter [1]; 24 mg,79.7
same,"Resting Max Pressure Rectal Ref, Min",anal sphincter [1]; 24 mg,58.8
same,"Resting Mean Pressure Rectal Ref, Max",anal sphincter [1]; 24 mg,80.0
same,"Resting Mean Pressure Rectal Ref, Mean",anal sphincter [1]; 24 mg,63.9
same,"Resting Mean Pressure Rectal Ref, Median",anal sphincter [1]; 24 mg,64.4
same,"Resting Mean Pressure Rectal Ref, Min",anal sphincter [1]; 24 mg,51.7
CNC[C@H](O)c1cccc(O)c1 [Phenylephrine],Length HPV,"anal sphincter [2]; 40 mg, 90 min",2.2 cm
same,Length Verge to center,"anal sphincter [2]; 40 mg, 90 min",0.8 cm
same,Resting Abs ref Max,"anal sphincter [2]; 40 mg, 90 min",109.0 mm Hg
same,Resting Abs ref Mean,"anal sphincter [2]; 40 mg, 90 min",95.0 mm Hg
same,Resting rectal ref Max,"anal sphincter [2]; 40 mg, 90 min",105.1 mm Hg
same,Resting rectal ref Mean,"anal sphincter [2]; 40 mg, 90 min",91.2 mm Hg
same,Squeeze Abs ref mean,"anal sphincter [2]; 40 mg, 90 min",348.7
same,Squeeze Rectal ref max,"anal sphincter [2]; 40 mg, 90 min",332.4
same,Length HPV,"anal sphincter [2]; 40 mg, 180 min",2.1 cm
same,Length Verge to center,"anal sphincter [2]; 40 mg, 180 min",0.5 cm
same,Resting Abs ref Max,"anal sphincter [2]; 40 mg, 180 min",127.8 mm Hg
same,Resting Abs ref Mean,"anal sphincter [2]; 40 mg, 180 min",93.1 mm Hg
same,Resting rectal ref Max,"anal sphincter [2]; 40 mg, 180 min",124.0 mm Hg
same,Resting rectal ref Mean,"anal sphincter [2]; 40 mg, 180 min",89.2 mm Hg
same,Squeeze Abs ref mean,"anal sphincter [2]; 40 mg, 180 min",336.5
same,Squeeze Rectal ref max,"anal sphincter [2]; 40 mg, 180 min",318.8
same,Length HPV,"anal sphincter [2]; 40 mg, 240 min",2.5 cm
same,Length Verge to center,"anal sphincter [2]; 40 mg, 240 min",0.8 cm
same,Resting Abs ref Max,"anal sphincter [2]; 40 mg, 240 min",94.2 mm Hg
same,Resting Abs ref Mean,"anal sphincter [2]; 40 mg, 240 min",82.5 mm Hg
same,Resting rectal ref Max,"anal sphincter [2]; 40 mg, 240 min",88.7 mm Hg
same,Resting rectal ref Mean,"anal sphincter [2]; 40 mg, 240 min",77.0 mm Hg
same,Squeeze Abs ref mean,"anal sphincter [2]; 40 mg, 240 min",376.7
same,Squeeze Rectal ref max,"anal sphincter [2]; 40 mg, 240 min",363.3
same,mean resting anal pressure,anal sphincter [2]; 80 mg in 1 cc volume (8% concentration),significant increase in the mean resting anal pressure
same,Length HPV,"anal sphincter [2]; 80 mg, 90 min",2.2 cm
same,Length Verge to center,"anal sphincter [2]; 80 mg, 90 min",0.5 cm
same,Resting Abs ref Max,"anal sphincter [2]; 80 mg, 90 min",139.9 mm Hg
same,Resting Abs ref Mean,"anal sphincter [2]; 80 mg, 90 min",107.6 mm Hg
same,Resting rectal ref Max,"anal sphincter [2]; 80 mg, 90 min",136.5 mm Hg
same,Resting rectal ref Mean,"anal sphincter [2]; 80 mg, 90 min",104.2 mm Hg
same,Squeeze Abs ref mean,"anal sphincter [2]; 80 mg, 90 min",364.1
same,Squeeze Rectal ref max,"anal sphincter [2]; 80 mg, 90 min",352.4
same,Length HPV,"anal sphincter [2]; 80 mg, 180 min",2.6 cm
same,Length Verge to center,"anal sphincter [2]; 80 mg, 180 min",0.7 cm
same,Resting Abs ref Max,"anal sphincter [2]; 80 mg, 180 min",111.8 mm Hg
same,Resting Abs ref Mean,"anal sphincter [2]; 80 mg, 180 min",90.8 mm Hg
same,Resting rectal ref Max,"anal sphincter [2]; 80 mg, 180 min",109.2 mm Hg
same,Resting rectal ref Mean,"anal sphincter [2]; 80 mg, 180 min",88.2 mm Hg
same,Squeeze Abs ref mean,"anal sphincter [2]; 80 mg, 180 min",350.7
same,Squeeze Rectal ref max,"anal sphincter [2]; 80 mg, 180 min",337.6
same,Length HPV,"anal sphincter [2]; 80 mg, 270 min",2.5 cm
same,Length Verge to center,"anal sphincter [2]; 80 mg, 270 min",0.9 cm
same,Resting Abs ref Max,"anal sphincter [2]; 80 mg, 270 min",96.1 mm Hg
same,Resting Abs ref Mean,"anal sphincter [2]; 80 mg, 270 min",83.1 mm Hg
same,Resting rectal ref Max,"anal sphincter [2]; 80 mg, 270 min",92.5 mm Hg
same,Resting rectal ref Mean,"anal sphincter [2]; 80 mg, 270 min",79.5 mm Hg
same,Squeeze Abs ref mean,"anal sphincter [2]; 80 mg, 270 min",340.4
same,Squeeze Rectal ref max,"anal sphincter [2]; 80 mg, 270 min",321.2
same,anal sphincter pressures at resting and at squeezing conditions,anal sphincter [2]; 40 and 80 mg,increased in a dose-dependent manner
same,resting pressure,"anal canal; 30% and 40%, compared with placebo",significant increase in resting pressure at both time points compared with placebo
same,median resting pressure,anal canal; concentrations of 10% and 20%,"modest increase in median resting pressure, this was not statistically significant"
Glucagon,rate of absorption,[3],relatively quickly absorbed
